Key:
[1] = test system: barnyardgrass (Echinochloa crus-galli L.); assay: Test Example 1: herbicidal test by water treatment in a paddy field; assay type: in vivo; design: key: 5: Withered; 4.5: Herbicidal effect (or phytotoxicity) in a range of 90 to 99%; 4: Herbicidal effect (or phytotoxicity) in a range of 80 to 89%; 3.5: Herbicidal effect (or phytotoxicity) in a range of 70 to 79%; 3: Herbicidal effect (or phytotoxicity) in a range of 60 to 69%; 2.5: Herbicidal effect (or phytotoxicity) in a range of 50 to 59%; 2: Herbicidal effect (or phytotoxicity) in a range of 40 to 49%; 1.5: Herbicidal effect (or phytotoxicity) in a range of 30 to 39%; 1: Herbicidal effect (or phytotoxicity) in a range of 20 to 29%; 0.5: Herbicidal effect (or phytotoxicity) in a range of 1 to 19%; 0: No herbicidal effect (or no phytotoxicity); details: evaluated thirty days after application
Description: (§1) Into each porcelain pot having a diameter of 10 cm, paddy soil was filled and puddled, and seeds of barnyardgrass (Echinochloa crus-galli L.), smallflower flatsedge, monochoria and Japanese bulrush were sown, and water was filled in a-depth of 3 cm. One day later, a predetermined amount of the wettable powder prepared in Formulation Example 3 and diluted with water was dropwise applied to the surface of the water (dose of the active ingredient: 4 kg/hectare). Thereafter, they were grown in a green house. Thirty days after the application, the herbicidal effects were evaluated in accordance with the standards as identified in Table 5.

Japanese bulrush = assay: as above; assay type: in vivo, Scir^pus juncoides Roxb.; design: key: 5: Withered; 4.5: Herbicidal effect (or phytotoxicity) in a range of 90 to 99%; 4: Herbicidal effect (or phytotoxicity) in a range of 80 to 89%; 3.5: Herbicidal effect (or phytotoxicity) in a range of 70 to 79%; 3: Herbicidal effect (or phytotoxicity) in a range of 60 to 69%; 2.5: Herbicidal effect (or phytotoxicity) in a range of 50 to 59%; 2: Herbicidal effect (or phytotoxicity) in a range of 40 to 49%; 1.5: Herbicidal effect (or phytotoxicity) in a range of 30 to 39%; 1: Herbicidal effect (or phytotoxicity) in a range of 20 to 29%; 0.5: Herbicidal effect (or phytotoxicity) in a range of 1 to 19%; 0: No herbicidal effect (or no phytotoxicity); details: evaluated thirty days after application
Description: as §1

monochoria = assay: as above; assay type: in vivo, Monochoria vaginalis Presl; design: key: 5: Withered; 4.5: Herbicidal effect (or phytotoxicity) in a range of 90 to 99%; 4: Herbicidal effect (or phytotoxicity) in a range of 80 to 89%; 3.5: Herbicidal effect (or phytotoxicity) in a range of 70 to 79%; 3: Herbicidal effect (or phytotoxicity) in a range of 60 to 69%; 2.5: Herbicidal effect (or phytotoxicity) in a range of 50 to 59%; 2: Herbicidal effect (or phytotoxicity) in a range of 40 to 49%; 1.5: Herbicidal effect (or phytotoxicity) in a range of 30 to 39%; 1: Herbicidal effect (or phytotoxicity) in a range of 20 to 29%; 0.5: Herbicidal effect (or phytotoxicity) in a range of 1 to 19%; 0: No herbicidal effect (or no phytotoxicity); details: evaluated thirty days after application
Description: as §1

smallflower flatsedge = assay: as above; assay type: in vivo, Cvperus diffcrmis L.; design: key: 5: Withered; 4.5: Herbicidal effect (or phytotoxicity) in a range of 90 to 99%; 4: Herbicidal effect (or phytotoxicity) in a range of 80 to 89%; 3.5: Herbicidal effect (or phytotoxicity) in a range of 70 to 79%; 3: Herbicidal effect (or phytotoxicity) in a range of 60 to 69%; 2.5: Herbicidal effect (or phytotoxicity) in a range of 50 to 59%; 2: Herbicidal effect (or phytotoxicity) in a range of 40 to 49%; 1.5: Herbicidal effect (or phytotoxicity) in a range of 30 to 39%; 1: Herbicidal effect (or phytotoxicity) in a range of 20 to 29%; 0.5: Herbicidal effect (or phytotoxicity) in a range of 1 to 19%; 0: No herbicidal effect (or no phytotoxicity); details: evaluated thirty days after application
Description: as §1

barnyardgrass = assay: Test Example 2: herbicidal test for selectivity between rice and barnyardgrass (herbicidal effects); assay type: in vivo, Echinochloa crus-galli L.; details: barnyardgrass of 2-leaf stage, thirty days after application
Description: (§2) Into each 1/5000 are Wager pot, paddy soil was filled and puddled, then seeds of barnyardgrass were sown and grown until they reached 2-leaf stage. The barnyardgrass of 2-leaf stage was thinned out to adjust the number of barnyardgrass to fifteen per pot, and rice seedlings of 2-leaf stage were transplanted in the same pot. […] Thereafter, they were grown in a green house, and thirty days after the application, the herbicidal effects and phytotoxicity were evaluated in accordance with the standards as identified in Table 5.

Paddy rice = assay: Test Example 2: herbicidal test for selectivity between rice and barnyardgrass (phytotoxicity); assay type: in vivo; details: thirty days after application
Description: as §2

[2] = Herbicidal activity of the prior-art compound, used in the same manner as the compound of the invention (general statement); assay type: in vivo; details: used in the same manner as the compound of the present invention
[3] = dose of the active ingredient 4 kg/hectare, wettable powder applied to water surface one day after sowing
[4] = water treatment in paddy field pot, dose of active ingredient 4 kg/hectare

## O=C(NOc1cccc(Cl)c1Cl)NC1CCCCC1 [Compound No. 3, 1-Cyclohexyl-3-(2,3-dichlorophenoxy) urea]
[1]; [3]
  Herbicidal effects Barnyard grass: 5
Japanese bulrush; [3]
  Herbicidal effects Japanese bulrush: 5
monochoria; [3]
  Herbicidal effects Monochoria: 5
Smallflower flatsedge; [3]
  Herbicidal effects Small flower flatsedge: 5

## C=CCNC(=O)NOc1cc(Cl)ccc1Cl [Compound No. 2, 1-Allyl-3-(2,5-dichlorophenoxy) urea]
[1]; [3]
  Herbicidal effects Barnyard grass: 5
Japanese bulrush; [3]
  Herbicidal effects Japanese bulrush: 5
barnyardgrass; Dose 0.5 kg/Ha
  Herbicidal effects Barnyard grass: 5
barnyardgrass; Dose 1 kg/Ha
  Herbicidal effects Barnyard grass: 5
monochoria; [3]
  Herbicidal effects Monochoria: 5
Paddy rice; Dose 0.5 kg/Ha, transplanted rice seedlings of 2-leaf stage
  Phytotoxicity Paddy rice: 0
Paddy rice; Dose 1 kg/Ha, transplanted rice seedlings of 2-leaf stage
  Phytotoxicity Paddy rice: 1 (Herbicidal effect (or phytotoxicity) in a range of 20 to 29%)
Smallflower flatsedge; [3]
  Herbicidal effects Small flower flatsedge: 5

## 3-(2,5-Dichlorophenoxy)-1,1-dimethyl urea trichloroacetate [Compound No. 185]
[1]; [4]
  Herbicidal effects Barnyard grass: 5
Japanese bulrush; [4]
  Herbicidal effects Japanese bulrush: 5
monochoria; [4]
  Herbicidal effects Monochoria: 5
Smallflower flatsedge; [4]
  Herbicidal effects Small flower flatsedge: 5

## NC(=O)NOc1cccc(Cl)c1 [m-chlorophenoxy urea]
[2]
  herbicidal activites: does not show any herbicidal activites

## 3-(3,5-Dichlorophenoxy)-1,1-dimethyl urea trichloroacetate [Compound No. 184]
[1]; [4]
  Herbicidal effects Barnyard grass: 5
Japanese bulrush; [4]
  Herbicidal effects Japanese bulrush: 5
monochoria; [4]
  Herbicidal effects Monochoria: 5
Smallflower flatsedge; [4]
  Herbicidal effects Small flower flatsedge: 5

## CN(C)C(=O)Nc1ccc(Cl)c(Cl)c1 [DCMU, reference compound]
barnyardgrass; Dose 0.25 kg/Ha, water surface application
  Herbicidal effects Barnyard grass: 3 (Herbicidal effect (or phytotoxicity) in a range of 60 to 69%)
barnyardgrass; Dose 0.5 kg/Ha, water surface application
  Herbicidal effects Barnyard grass: 5
barnyardgrass; Dose 1 kg/Ha, water surface application
  Herbicidal effects Barnyard grass: 5
Paddy rice; Dose 0.25 kg/Ha, rice seedlings of 2-leaf stage transplanted, water surface application
  Phytotoxicity Paddy rice: 2 (Herbicidal effect (or phytotoxicity) in a range of 40 to 49%)
Paddy rice; Dose 0.5 kg/Ha, rice seedlings of 2-leaf stage transplanted, water surface application
  Phytotoxicity Paddy rice: 4 (Herbicidal effect (or phytotoxicity) in a range of 80 to 89%)
Paddy rice; Dose 1 kg/Ha, rice seedlings of 2-leaf stage transplanted, water surface application
  Phytotoxicity Paddy rice: 5

## NC(=O)NOc1cccc(Cl)c1 [Comparative Compound]
[1]; [4]
  Herbicidal effects Barnyard grass: 0
Japanese bulrush; [4]
  Herbicidal effects Japanese bulrush: 0
monochoria; [4]
  Herbicidal effects Monochoria: 0
Smallflower flatsedge; [4]
  Herbicidal effects Small flower flatsedge: 0

Reference: patent publication EP0183174A2, “Substituted phenoxy urea, processes for its preparation and herbicide containing it as active ingredient” (KUMIAI CHEMICAL INDUSTRY CO., LTD., priority 1984, dated 1986)
